Data on five compounds can be found in US8987195B2 (priority 2012, dated 2015).

Broadly, the EC50 is the concentration at which the effect is half-maximal. The term IC50 denotes the point on the concentration scale where inhibition reaches its midpoint. High values mean lower potency, low ones higher potency.

One test concerns HCV genotype 1b replicon. Description: HCV replicon assay, genotype 1b replicon EC50. The settings on record: Hepatitis C virus, HCV replicon, genotype 1b; read-out: EC50 [gt-1b]. Format: cell-based, Hepatitis C virus. The procedure, abridged:
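Compound dilution series incubated 24-48 h, G418 absent, with HCV genotype 1b replicon cell lines kept under G418 selection beforehand. Luciferase signal or replicon RNA, by ^32P hybridization/protection or TaqMan normalized to cyclophilin A, was measured after washing and lysis. Four-parameter fitting against DMSO control gave EC50.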
A general note: Replicon systems follow genome replication, usually without infectious particles.

Test [1] addresses HCV NS3/4A protease genotype 1b (Hepatitis C virus genotype 1b, UniProt P26663). Description: HCV NS3/4A protease time-resolved fluorescence (TRF) assay, Ki against genotype 1b. The settings on record: IC50 [gt-1b], NS3/4A protease TRF assay, genotype 1b enzyme 0.2 nM. It counts as biochemical. An outline of the steps: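 Ki values come from IC50 fits corrected for substrate concentration and KM. The time-resolved fluorescence protease reaction used 25 nM peptide substrate, 2.5 h, room temperature, pH 7.5 HEPES buffer, after 30 min enzyme–inhibitor preincubation.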

HCV NS3/4A protease genotype 1b, sequence (P26663 1027-1657): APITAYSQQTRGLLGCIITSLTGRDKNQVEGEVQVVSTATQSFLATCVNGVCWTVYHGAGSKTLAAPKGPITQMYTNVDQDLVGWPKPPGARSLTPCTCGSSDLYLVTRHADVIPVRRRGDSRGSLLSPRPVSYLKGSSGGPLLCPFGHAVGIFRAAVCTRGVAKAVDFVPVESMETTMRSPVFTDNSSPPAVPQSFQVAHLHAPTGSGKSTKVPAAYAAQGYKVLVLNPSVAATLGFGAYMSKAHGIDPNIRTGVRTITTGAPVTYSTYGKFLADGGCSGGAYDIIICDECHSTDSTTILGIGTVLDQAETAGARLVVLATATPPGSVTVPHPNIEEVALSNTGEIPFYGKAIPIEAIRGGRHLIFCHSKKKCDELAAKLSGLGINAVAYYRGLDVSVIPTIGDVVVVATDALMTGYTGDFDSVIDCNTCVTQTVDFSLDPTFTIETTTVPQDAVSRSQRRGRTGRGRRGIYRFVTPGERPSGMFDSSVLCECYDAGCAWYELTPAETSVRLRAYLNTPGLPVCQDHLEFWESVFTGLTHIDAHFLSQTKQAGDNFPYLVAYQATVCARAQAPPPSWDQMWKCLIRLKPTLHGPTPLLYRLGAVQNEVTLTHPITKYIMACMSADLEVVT
HCV NS3/4A protease genotype 1b, sequence (P26663 1658-1711): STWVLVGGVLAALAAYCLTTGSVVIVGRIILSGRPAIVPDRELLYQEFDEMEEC

Consider `CCc1nc2ccc(OC)cc2c2c1O[C@]1(CC2)C[C@H]2C(=O)N[C@]3(C(=O)NS(=O)(=O)C4(C)CC4)C[C@H]3/C=C\CCCCC[C@H](NC(=O)c3ccc(C)s3)C(=O)N2C1` [Example 466, (2R,6S,12Z,13aS,14aR,16aS)-5′-ethyl-9′-methoxy-N-[(1-methylcyclopropyl)sulfonyl]-6-{[(5-methylthiophen-2-yl)carbonyl]amino}-5,16-dioxo-1,1′,2′,6,7,8,9,10,11,13a,14,15,16,16a-tetradecahydrospiro[cyclopropa[e]pyrrolo[1,2-a][1,4]diazacyclopentadecine-2,3′-pyrano[2,3-c]quinoline]-14a(5H)-carboxamide], for which the EC50 in the test with HCV genotype 1b replicon came out at 1.62 nM. For the same compound, in test [1], the IC50 was determined as 0.041 nM.
As to `CCc1nc2ccc(OC)cc2c2c1O[C@]1(CC2)C[C@H]2C(=O)N[C@]3(C(=O)NS(=O)(=O)C4(C)CC4)C[C@H]3/C=C\CCCCC[C@H](NC(=O)c3ccn(CC)n3)C(=O)N2C1` [Example 467, (2R,6S,12Z,13aS,14aR,16aS)-5′-ethyl-6-{[(1-ethyl-1H-pyrazol-3-yl)carbonyl]amino}-9′-methoxy-N-[(1-methylcyclopropyl)sulfonyl]-5,16-dioxo-1,1′,2′,6,7,8,9,10,11,13a,14,15,16,16a-tetradecahydrospiro[cyclopropa[e]pyrrolo[1,2-a][1,4]diazacyclopentadecine-2,3′-pyrano[2,3-c]quinoline]-14a(5H)-carboxamide], the 50% effective concentration (EC50) in the test with HCV genotype 1b replicon worked out at 4.71 nM. The compound further gave an IC50 in test [1] of 0.028 nM.
In the case of `CCc1nc2ccc(OC)cc2c2c1O[C@]1(CC2)C[C@H]2C(=O)N[C@]3(C(=O)NS(=O)(=O)C4(C)CC4)C[C@H]3/C=C\CCCCC[C@H](NC(=O)c3ccn(C(F)F)n3)C(=O)N2C1` [Example 468, (2R,6S,12Z,13aS,14aR,16aS)-6-({[1-(difluoromethyl)-1H-pyrazol-3-yl]carbonyl}amino)-5′-ethyl-9′-methoxy-N-[(1-methylcyclopropyl)sulfonyl]-5,16-dioxo-1,1′,2′,6,7,8,9,10,11,13a,14,15,16,16a-tetradecahydrospiro[cyclopropa[e]pyrrolo[1,2-a][1,4]diazacyclopentadecine-2,3′-pyrano[2,3-c]quinoline]-14a(5H)-carboxamide], the EC50 in the test on HCV genotype 1b replicon worked out at 7.15 nM. In addition, the half-maximal inhibitory concentration (IC50) in test [1] came out at 0.031 nM.
The corresponding values for `CCc1nc2ccc(OC)cc2c2c1O[C@]1(CC2)C[C@H]2C(=O)N[C@]3(C(=O)NS(=O)(=O)C4(C)CC4)C[C@H]3/C=C\CCCCC[C@H](NC(=O)c3cc[nH]n3)C(=O)N2C1` [Example 469, (2R,6S,12Z,13aS,14aR,16aS)-5′-ethyl-9′-methoxy-N-[(1-methylcyclopropyl)sulfonyl]-5,16-dioxo-6-[(1H-pyrazol-3-ylcarbonyl)amino]-1,1′,2′,6,7,8,9,10,11,13a,14,15,16,16a-tetradecahydrospiro[cyclopropa[e]pyrrolo[1,2-a][1,4]diazacyclopentadecine-2,3′-pyrano[2,3-c]quinoline]-14a(5H)-carboxamide] are 48.8 nM and 0.016 nM.
The corresponding values for `CCc1nc2ccc(OCCN3CCOCC3)cc2c2c1O[C@]1(CC2)C[C@H]2C(=O)N[C@]3(C(=O)NS(=O)(=O)C4(C)CC4)C[C@H]3/C=C\CCCCC[C@H](NC(=O)OC(C)(C)C)C(=O)N2C1` [Example 470, tert-butyl {(2R,6S,12Z,13aS,14aR,16aS)-5′-ethyl-14a-{[(1-methylcyclopropyl)sulfonyl]carbamoyl}-9′-[2-(morpholin-4-yl)ethoxy]-5,16-dioxo-1,1′,2′,5,6,7,8,9,10,11,13a,14,14a,15,16,16a-hexadecahydrospiro[cyclopropa[e]pyrrolo[1,2-a][1,4]diazacyclopentadecine-2,3′-pyrano[2,3-c]quinolin]-6-yl}carbamate] are 5.74 nM and 0.011 nM.
